Test results reported in patent US12311019B2, “Vaccine composition and uses thereof” (Imugene Limited, priority 2018, dated 2025).
Entries after “also recorded” stand apart in the source; their conditions may differ.

How the values were obtained:
[1] = molecular target: PD1 (SEQ ID NO:1) conjugated to a His tag (Homo sapiens, UniProt Q15116); experiment: ELISA of anti-PD1 antibody titre in immunised rabbits on PD1 coated plates; format: binding; settings: for anti-PD1 antibody response / titre raised in immunised rabbits (in words): rabbits immunised with KLH-conjugated peptide in Freund's adjuvant
Method: Approximately 250-500 μg of each KLH-conjugated peptide fragment was diluted with saline and subsequently emulsified in complete or incomplete Freund's adjuvant at a mass ratio of 1:1. The emulsified solution was administered to rabbits by subcutaneous injection around the shoulders and intramuscular injection into the legs in accordance with the following immunization protocol: • i. Day 00—Serum collected 2 ml (for 0.5-1.0 ml pre-immune serum; • ii. Day 01—1st-immunization, complete Freund's adjuvant, 500 μg peptide fragment; • iii. Day 15—2nd-immunization, complete Freund's adjuvant, 500 μg peptide fragment; • iv. Day 29—3rd-immunization, incomplete Freund's adjuvant, 250 μg peptide fragment; • v. Day 35—Serum collected, 2-3 ml for assessment of anti-PD1 antibody titre by ELISA; • vi. Day 36—4th-immunization, incomplete Freund's adjuvant, 250 μg peptide fragment (optional); • vii. Day 43—5th-immunization, incomplete Freund's adjuvant. 250 μg peptide fragment (optional); • viii. Day 50—6th-immunization, incomplete Freund's adjuvant 250 μg peptide fragment (optional); • ix. Day 57—7th-immunization, incomplete Freund's adjuvant 250 μg peptide fragment (optional); • x. Day 63—Blood sample is collected from the immunised rabbits. B. Assessment of Anti-PDJ Antibody Titre in Immunised Rabbits by ELISA
An enzyme-linked immunosorbent assays (ELISA) was used to measure the anti-PD1 antibody titre in the blood samples collected from the immunized rabbits. Briefly, microtiter plates were coated with PD1 (SEQ ID NO:1) conjugated to a His tag. After blocking the wells of the microtiter plates with BSA to minimise non-specific binding, diluted sera from the immunized rabbits were added to the plates and incubated on a shaker for around 1 hr at 20° C. (or alternatively overnight at 4° C.). The plates were then washed four times with PBS/0.1% v/v Tween 20 and excess wash buffer was removed from each well.
Approximately 100 μL of a horseradish peroxidase-labeled anti-rabbit antibody was then added to each well and incubated for around 1 hr at 20° C. The plates were then washed four times with PBS/0.1% v/v Tween 20 and excess wash buffer was removed from each well. The plates were then washed twice with PBS only, to remove traces of Tween remaining from the washing buffer.
To detect the presence of horseradish peroxidase-labeled, anti-rabbit antibody, 100 μL of 1-Step™ ABTS (Pierce Cat. No. 37615) was added to each well and incubated for up to 45 min at 20° C. The absorbance of any colour change in each well was read using a microtitre Titertek Multiskan MC plate reader in the dual wavelength mode at 405 nm against a reference wavelength of 492 nm and compared to appropriate negative controls, such as the colour change observed in a well to which no PD1 was added, to which no immunised rabbit sera was added and/or to which no horseradish peroxidase-labeled, anti-rabbit antibody was added.
Approximately 250-500 μg of each KLH-conjugated fusion peptides were diluted with saline and subsequently emulsified in complete or incomplete Freund's adjuvant at a mass ratio of 1:1. The emulsified solutions were administered to rabbits by subcutaneous injection around the shoulders and intramuscular injection into the legs in accordance with the immunization protocol of Example 2, above.
An enzyme-linked immunosorbent assays (ELISA) was used to measure the anti-PD1 antibody titre in the blood samples collected from the immunized rabbits, in accordance with the methodology set out in Example 2 above. The absorbance readings from the ELISA assay are shown in Table 8, below (SEQ TD NO:9 is underlined): […]

[2] = system: PD1 protein from other species—mouse, rat, Rhesus monkey, Cynomolgus monkey and canine; experiment: Cross-reactivity ELISAs, summary over species; format: binding; settings: for cross-reactivity of affinity-purified anti-PD1 antibodies from animals immunised with the peptide with PD1 protein from other species: mouse, rat, Rhesus monkey, Cynomolgus monkey and canine
Method: To assess whether or not the anti-human PD1 antibodies raised in the immunised rabbits would cross-react with PD1 of other species, the anti-PD1 antisera from the Examples 7 and 8, above, were screened in an ELISA assay for binding to mouse, rhesus monkey, canine and rat PD1 proteins.
A further ELISA assay was performed to make a direct comparison of the cross-reactivity of anti-human PD1 antibodies raised in the immunised rabbits (Rabbits 1 and 2) to PD1 proteins of different species.

PD1 (SEQ ID NO:1) conjugated to a His tag, sequence (Q15116 25-170): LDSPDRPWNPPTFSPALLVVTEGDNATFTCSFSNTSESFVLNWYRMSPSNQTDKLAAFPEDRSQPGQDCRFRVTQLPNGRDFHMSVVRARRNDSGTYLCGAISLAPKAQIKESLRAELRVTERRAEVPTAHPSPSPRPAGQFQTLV

Sequence	anti-PD1 antibody response / titre raised in immunised rabbits (in words) [1]	species of greatest cross-reactivity of the anti-PD1 antibodies raised with the peptide [2]	cross-reactivity of affinity-purified anti-PD1 antibodies from animals immunised with the peptide with PD1 protein from other species [2]	anti-PD1 antibody titre compared to the other peptide sequences ([1]; immunised rabbits)
FPEDRSQPGQDC (listed as Homo sapiens) [SEQ ID NO:29]	raising an anti-PD1 antibody response; also recorded: sufficient anti-PD1 antibody titres	greatest cross-reactivity to PD1 protein from Rhesus and Cynomolgus monkeys	at least some cross-reactivity	
FSPALLVVTEGD (listed as Homo sapiens) [SEQ ID NO:14]	raising an anti-PD1 antibody response; also recorded: sufficient anti-PD1 antibody titres	greatest cross-reactivity to PD1 protein from Rhesus and Cynomolgus monkeys	at least some cross-reactivity	
GAISLAPKAQIK (listed as Homo sapiens) [SEQ ID NO:43]	raising an anti-PD1 antibody response; also recorded: sufficient anti-PD1 antibody titres	greatest cross-reactivity to PD1 protein from Rhesus and Cynomolgus monkeys	at least some cross-reactivity	
GAISLAPKAQIKGWFLDSPDRPWN (listed as Homo sapiens) [SEQ ID NO:57]	Anti-PD1 antibodies were also raised	greatest cross-reactivity to PD1 protein from Rhesus and Cynomolgus monkeys	at least some cross-reactivity	
GWFLDSPDRPWN (listed as Homo sapiens) [SEQ ID NO:9]	raising an anti-PD1 antibody response; also recorded: sufficient anti-PD1 antibody titres	greatest cross-reactivity to PD1 protein from Rhesus and Cynomolgus monkeys	at least some cross-reactivity	highest anti-PD1 antibody titre; also recorded: higher anti-PD1 antibody titre
GWFLDSPDRPWNGAISLAPKAQIK (listed as Homo sapiens) [SEQ ID NO:56]	Anti-PD1 antibodies were also raised	greatest cross-reactivity to PD1 protein from Rhesus and Cynomolgus monkeys	at least some cross-reactivity	
LAAFPEDRSQPG (listed as Homo sapiens) [SEQ ID NO:28]	raising an anti-PD1 antibody response; also recorded: sufficient anti-PD1 antibody titres	greatest cross-reactivity to PD1 protein from Rhesus and Cynomolgus monkeys	at least some cross-reactivity	
LDSPDRPWNPPT (listed as Homo sapiens) [SEQ ID NO:10]	raising an anti-PD1 antibody response; also recorded: sufficient anti-PD1 antibody titres	greatest cross-reactivity to PD1 protein from Rhesus and Cynomolgus monkeys	at least some cross-reactivity	
LRVTERRAEVPT (listed as Homo sapiens) [SEQ ID NO:49]	raising an anti-PD1 antibody response; also recorded: sufficient anti-PD1 antibody titres	greatest cross-reactivity to PD1 protein from Rhesus and Cynomolgus monkeys	at least some cross-reactivity	
NWYRMSPSNQTD (listed as Homo sapiens) [SEQ ID NO:59]	raising an anti-PD1 antibody response; also recorded: sufficient anti-PD1 antibody titres	greatest cross-reactivity to PD1 protein from Rhesus and Cynomolgus monkeys	at least some cross-reactivity	
YLSGAISLAPKA (listed as Homo sapiens) [SEQ ID NO:61]	raising an anti-PD1 antibody response; also recorded: sufficient anti-PD1 antibody titres	greatest cross-reactivity to PD1 protein from Rhesus and Cynomolgus monkeys	at least some cross-reactivity	
